What was measured:
[1] = system: cherry tomato (Suncherry Pure); format: in vivo; conditions: 10 mM sprinkled once a week
Protocol: Three seeds of cherry tomato (Suncherry Pure, Tokita Seed) were shown in compost contained in a slit pot, and cultivated in the same manner as described in Example 1, provided that the cultivation was performed in a greenhouse as in Example 2. The compost and application of fertilizer were the same or performed in the same manner as those described in Example 1. One month after the sowing, each seedling was permanently planted in a 9.0-cm long pot (top diameter 9 cm, height 20 cm, bottom diameter 6.4 cm), and cultivated until harvest. As for application of fertilizer, a 200-fold diluted solution of Vegetable Life A (Otsuka Chemical) was additionally applied as a fertilizer by irrigation in a volume of 100 mL per one root clump (pot) every two days from one month after the sowing to the harvest. After the plants of four root clumps uniformly grew, and flower buds began to appear, water (Con.), 10 mM L-isoleucine aqueous solution (Ile), or 10 mM proline aqueous solution (Pro) was sprinkled on the whole plants once a week. The sprinkled volume was adjusted in accordance with the growth of the plants, and it was 15 to 30 mL per one root clump. Then, ripening of fruit, number of fruit, amino acid content of fruit juice, sugar content and acidity of fruit juice, and antioxidant capacity of fruit juice were investigated for each root clump.

[2] = system: cherry tomato (Suncherry Pure); test: Amino acid analysis of tomato fruit obtained with sprinkling of Ile or Pro; format: in vivo; conditions: fruit juice; plants sprinkled with 10 mM solution once a week; average of 8 fruit
Protocol: (§1) After the plants of four root clumps uniformly grew, and flower buds began to appear, water (Con.), 10 mM L-isoleucine aqueous solution (Ile), or 10 mM proline aqueous solution (Pro) was sprinkled on the whole plants once a week. The sprinkled volume was adjusted in accordance with the growth of the plants, and it was 15 to 30 mL per one root clump.
Mature fruit were taken from each of the cherry tomato plants sprinkled with water, Ile, or Pro, and the amino acid content was analyzed for each. Two pieces of fruit were taken from the flower cluster of the second tier of one root clump, that is, a total of 8 pieces of fruit were taken for each test group. Fruit juice was pressed out of each piece of fruit, and the fruit juice was diluted 10 times with 0.02 N HCl, and subjected to filter filtration. The amino acids contained in the obtained filtrate were measured. Measurement of the amino acids was performed with High Speed Amino Acid Analyzer L-8800 (Hitachi) according to the manual of this instrument. The amounts of the amino acids (μmol/mL) in each fruit juice filtrate were calculated, and the averages for eight pieces of fruit were used as the amino acid amounts of the corresponding test group.

[3] = system: cherry tomato (Suncherry Pure); test: Sugar content and acidity analysis of tomato fruit juice; format: in vivo; conditions: 10 mM sprinkled once a week
Protocol: as §1
Mature tomato fruit were taken from cherry tomato plants of each experimental group in the same manner as described in iii) above, and fruit juice was pressed out from each fruit. Glucose content, fructose content, and acidity of each fruit juice extract were analyzed. Analysis of glucose and fructose was performed for a 20-fold diluted solution of fruit juice by using a food analysis reagent kit, F-Kit (Saccharose (Sucrose)/D-Glucose/D-Fructose Kit (Roche)) and DU800 Spectrophotometer (Beckman Coulter) according to the manuals of the kit and instrument. Acidity analysis was performed by using a pocket acidity meter (PAL-AC1, ATAGO).

[4] = system: VR callus derived from European grape; test: Anthocyanin content of grape calluses treated with amino acids; format: cell-based, Vitis vinifera L.
Protocol: A cell line (VR, management number RPC00003) derived from European grape (Vitis vinifera L.) and stored in the Institute of Physical and Chemical Research, BioResource Center was subcultured on the MS agar medium. The subcultured VR callus was transferred to the MS agar medium containing a 5 mM solution of a different amino acid, and cultured. For the positive control, abscisic acid (ABA), for which coloring-promoting effect is known, was used at 100 μM (Jeong et al., Plant Science, 167:247-252, 2004). On the 5th day after the transfer, the callus was lyophilized and ground, and anthocyanin was extracted from it by using a 1% HCl/MeOH solution. Absorbance of the extract was measured at 530 nm, and the content of anthocyanin was measured by using cyanidine 3-glucoside as a standard substance.
(2) In the same manner as described above, anthocyanin content of grape calluses treated with isoleucine and proline, respectively, were measured.

[5] = system: tomato (Momotaro Fight); test: Sprinkling of various compounds on tomato (Momotaro): first appearance, coloring and number of fruit; format: in vivo; conditions: per four root clumps; for number of fruit turning color to orange or red: 107th day after sowing, water: 0; for number of harvested fruits: after cultivation for 3 months after sowing, water: 8
Protocol: Three seeds of tomato (Momotaro Fight) were shown in compost contained in a slit pot, and cultivated in the same manner as described in Example 1, provided that the cultivation was performed in a greenhouse (daytime temperature was 25° C. (6:00 to 20:00), and night temperature was 15° C. (20:00 to 6:00)). The compost and application of fertilizer were the same or performed in the same manner as those described in Example 1. After 3 weeks, one root clump was left, and the others were thinned out. When a flower cluster of the first tier appeared, a support was put up, and after a flower cluster of the second tier appeared, pinching was performed (pinching of terminal bud). After the plants of four root clumps uniformly grew, and flower buds began to appear, water (Con.), 10 mM L-isoleucine aqueous solution (Ile), 10 mM monosodium glutamate aqueous solution (GluNa), 5 mM urea aqueous solution (Urea), or 10 mM phenylalanine aqueous solution (Phe) was sprinkled on the whole plants every two weeks. The sprinkled volume was adjusted in accordance with the growth of the plants, and it was 15 to 30 mL per one root clump. The concentration of urea was 5 mM so that nitrogen amount provided by it was the same as that provided by each of the amino acids. Then, the first appearance of fruit, ripening of fruit, and number of fruit produced were investigated for each root clump.

SMILES: O=C(O)[C@@H]1CCCN1 [Pro, proline, reference compound]
- final crop yield: number of fruit produced, larger as compared to water (Con.) [1]: 9%
- number of tomatoes that had changed color [1]: larger in the order of the tomato plants sprinkled with Ile, Pro, and water (Con.)
- Ala in fruit juice [2]: 3.79 µmol/mL
- Arg in fruit juice [2]: 0.13 µmol/mL
- Asn in fruit juice [2]: 0.63 µmol/mL
- Asp in fruit juice [2]: 1.75 µmol/mL
- Cys in fruit juice [2]: 0.08 µmol/mL
- Gln in fruit juice [2]: 1.57 µmol/mL
- Glu in fruit juice [2]: 7.76 µmol/mL
- Gly in fruit juice [2]: 0.24 µmol/mL
- His in fruit juice [2]: 0.17 µmol/mL
- Ile in fruit juice [2]: 0.15 µmol/mL
- Leu in fruit juice [2]: 0.29 µmol/mL
- Lys in fruit juice [2]: 0.27 µmol/mL
- Met in fruit juice [2]: 0.14 µmol/mL
- Phe in fruit juice [2]: 0.38 µmol/mL
- Pro in fruit juice [2]: 0.39 µmol/mL
- Ser in fruit juice [2]: 0.61 µmol/mL
- Thr in fruit juice [2]: 0.27 µmol/mL
- Total amino acids in fruit juice [2]: 21.13 µmol/mL
- Trp in fruit juice [2]: 0.072 µmol/mL
- Tyr in fruit juice [2]: 0.185 µmol/mL
- Val in fruit juice [2]: 0.18 µmol/mL
- γ-ABA in fruit juice [2]: 4.46 µmol/mL
- acidity of the fruit, comparison of groups [3]: slightly increased
- glucose content and fructose content of the fruit, comparison of groups [3]: lowest
- Acidity ([3]; fruit juice of mature fruit): 0.47%
- Fructose ([3]; fruit juice of mature fruit): 12.2 g/L
- Glucose ([3]; fruit juice of mature fruit): 12.3 g/L
- change in color of the grape callus (anthocyanin content) ([4]; Ile of 1 mM or higher, Pro compared with Ile): weaker

SMILES: N[C@@H](Cc1ccccc1)C(=O)O [Phe, phenylalanine]
- number of fruit turning color to orange or red [5]: 0
- number of harvested fruits [5]: 8

SMILES: N[C@@H](Cc1ccc(O)cc1)C(=O)O [Try, reference compound]
- Relative anthocyanin content ([4]; 5 mM amino acid in MS agar medium, 5th day after transfer, positive control 100 μM abscisic acid (ABA) taken as 100%): 0%

SMILES: N[C@@H](CCC(=O)O)C(=O)[O-].[Na+] [GluNa, monosodium glutamate]
- number of fruit turning color to orange or red [5]: 1
- number of harvested fruits [5]: 14

SMILES: NC(N)=O [Urea, urea]
- number of fruit turning color to orange or red [5]: 1
- number of harvested fruits [5]: 10

Source: patent publication US10226044B2, “Agricultural and horticultural composition and method for cultivating plant” (AJINOMOTO CO., INC., priority 2014, dated 2019)
